Test results as given in PubChem BioAssay (NCI).
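Values below derive from 48-hour exposures of cells grown in 96-well plates, with endpoints linearly interpolated between the two concentrations bracketing the appropriate inhibition level. TGI: total growth inhibition.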

How the values were obtained:
Experiment in all cases: inhibition of tumour cell growth, NCI panel, 48 h
[1] = system: ACHN renal
[2] = system: BT-549 breast
[3] = system: SF-268 CNS
[4] = system: RPMI-8226 leukemia
[5] = system: UACC-257 melanoma
[6] = system: A498 renal
[7] = system: CAKI-1 renal
[8] = system: LOX IMVI melanoma
[9] = system: 786-0 renal
[10] = system: SNB-75 CNS
[11] = system: NCI-H522 lung

Compound	TGI [1]	TGI [2]	TGI [3]	TGI [4]	TGI [5]	TGI [6]	TGI [7]	TGI [8]	TGI [9]	TGI [10]	TGI [11]
c1ccc2c(c1)CC1COc3ccccc3C1O2 (stereo unspecified)	> 100 µM	> 100 µM	> 100 µM	> 100 µM	> 100 µM	> 100 µM	> 100 µM	> 100 µM	> 100 µM	> 100 µM	> 100 µM
CC1(C)CCC(=O)NC1CC(=O)CC1NC(=O)CCC1(C)C (stereo unspecified)	> 100 µM	> 100 µM	> 100 µM	> 100 µM	> 100 µM	> 100 µM	> 100 µM	> 100 µM	> 100 µM	> 100 µM	> 100 µM
C=CCN(c1cc(OC)c2[nH]cc(C)c2c1[N+](=O)[O-])S(C)(=O)=O	> 100 µM	> 100 µM	> 100 µM	> 100 µM	> 100 µM	> 100 µM	> 100 µM	> 100 µM	> 100 µM	> 100 µM	> 100 µM
C#CCn1c(=O)c(Cl)cn(/C(=C/C(=O)OCC)C(=O)OCC)c1=O	3.93 µM	35.7 µM	51.1 µM	5.28 µM	33.3 µM	40.8 µM	7.37 µM	19.9 µM	3.83 µM	34.2 µM	12.6 µM
CC(=O)N1c2ccccc2C(C)C1c1[nH]c2ccccc2c1C (stereo unspecified)	> 100 µM	58.1 µM	62 µM	73 µM	49.3 µM	53.8 µM	70.6 µM	> 100 µM	39.9 µM	50.1 µM	49.2 µM
CC(C)(C)[C@H]1CCC2(OCCO2)[C@](O)(CCCO)C1	> 100 µM	> 100 µM	> 100 µM	> 100 µM	> 100 µM	> 100 µM	> 100 µM	> 100 µM	> 100 µM	> 100 µM	> 100 µM
O=C(N/N=C\c1ccccc1)Nc1cccc2ccccc12	39 µM	98.3 µM	> 100 µM	> 100 µM	> 100 µM	88.9 µM	> 100 µM	> 100 µM	30.1 µM	> 100 µM	> 100 µM
Cc1ccc(C(=O)Nc2ccc(S(=O)(=O)O)c3cc(S(=O)(=O)O)cc(S(=O)(=O)O)c23)cc1NC(=O)c1cccc(NC(=O)Nc2cccc(C(=O)Nc3cc(C(=O)Nc4ccc(S(=O)(=O)O)c5cc(S(=O)(=O)O)cc(S(=O)(=O)O)c45)ccc3C)c2)c1 (tested in a mixture with another compound)	> 50 µM	> 50 µM	> 50 µM	> 50 µM	> 50 µM	> 50 µM	> 50 µM	> 50 µM	> 50 µM	> 50 µM	> 50 µM
COC(=O)c1ccccc1C1CN=NC12Cc1cccc(C)c1C2=O (stereo unspecified)	> 100 µM	> 100 µM	> 100 µM	> 100 µM	> 100 µM	> 100 µM	> 100 µM	> 100 µM	> 100 µM	> 100 µM	> 100 µM
N=c1c2c(=S)n(-c3ccccc3)c(=S)n(-c3ccccc3)c2nc(SCCN2CCOCC2)n1-c1ccccc1	3.5 µM	4.51 µM	4.41 µM	3.97 µM	4.28 µM	8.96 µM	3.99 µM	3.71 µM	3.14 µM	4.54 µM	3.16 µM
CC(=O)O[C@H]1C[C@H]2C(=S)Nc3ccccc3C(=S)N2C1	> 100 µM	> 100 µM	> 100 µM	> 100 µM	> 100 µM	> 100 µM	> 100 µM	> 100 µM	> 100 µM	> 100 µM	> 100 µM
CC(=O)OCC1OC(O/C=C(\CN=[N+]=[N-])C(C)=O)C(OC(C)=O)C(OC(C)=O)C1OC(C)=O (stereo unspecified)	12.4 µM	31.2 µM	56.9 µM	5.18 µM	17.1 µM	47.5 µM	10.1 µM	17.1 µM	18.2 µM	33.3 µM	5.08 µM
Clc1nc(Cl)c(CBr)c(Cl)n1	15.7 µM	4.17 µM	23.1 µM	4.06 µM	33.9 µM	32.1 µM	23.3 µM	4.14 µM	5.18 µM	24.8 µM	2.92 µM
c1ccc(C(CCN2CC3CCC(CC3)C2)c2ccccc2)cc1	57.8 µM	> 100 µM	69.2 µM	36.7 µM	31.9 µM	34.1 µM	> 100 µM	30.6 µM	36.1 µM	85.9 µM	31.9 µM
CC12CCC(C(Nc3ccccn3)C1=O)C2(C)C (stereo unspecified)	> 100 µM	> 100 µM	> 100 µM	> 100 µM	> 100 µM	> 100 µM	> 100 µM	> 100 µM	> 100 µM	> 100 µM	> 100 µM
Nn1c(Cc2ccccc2)n[nH]c1=O	> 100 µM	> 100 µM	> 100 µM	> 100 µM	> 100 µM	> 100 µM	> 100 µM	> 100 µM	> 100 µM	> 100 µM	> 100 µM
CC(C)(C)c1ccc(C(C)(C)C)c(N2C(=O)C3ON=C(c4ccc([N+](=O)[O-])cc4)C3C2=O)c1 (stereo unspecified)	> 25 µM	> 25 µM	> 25 µM	> 25 µM	> 25 µM	23.2 µM	> 25 µM	> 25 µM	9.71 µM	14.3 µM	> 25 µM
CC(=O)OCC1=C(C)C[C@H]([C@@H](COC(C)=O)C2CCC3C4C[C@H]5O[C@]56CC=CC(=O)[C@]6(C)C4CC[C@@]32C)OC1=O (stereo partly specified)	2.68 µM	3.65 µM	6.78 µM	0.181 µM	2.99 µM	1.64 µM	2.64 µM	0.552 µM	1.58 µM	6.09 µM	0.592 µM
c1ccc2nc(CCC3CCCCN3)ccc2c1 (stereo unspecified)	> 100 µM	> 100 µM	> 100 µM	> 100 µM	> 100 µM	> 100 µM	> 100 µM	> 100 µM	> 100 µM	> 100 µM	> 100 µM
COc1ccc2cc(C(=O)NCCCNC(=O)c3ccc4cc(OC)ccc4c3)ccc2c1	> 100 µM	> 100 µM	> 100 µM	> 100 µM	> 100 µM	> 100 µM	> 100 µM	> 100 µM	57.5 µM	50.5 µM	> 100 µM
COc1cc2c(cc1OCCCC(=O)Nc1cc(C(=O)NCCCN(C)C)n(C)n1)N=CC1CCCN1C2=O (stereo unspecified)	12.6 µM	29.7 µM	> 50.4 µM	17.6 µM	19.2 µM	12.4 µM	50.9 µM	> 21.2 µM	> 23.5 µM	22.3 µM	15.1 µM
